The test system of one test is LNCaP xenografts. Kind of test: LNCaP xenograft model. It is filed as in vivo, NOD/SCID mice. The conditions noted are these: IP bi-weekly. As for the experimental part: Treatment started 19 days after implantation when the tumors measure ˜200 mm^3. Two independent experiment with 5 mice per group were carried out. J54 and Bicalutamide was dissolved in DMSO and diluted in corn oil 1:10 and administered IP bi-weekly. Sectioning and processing of the tissues were carried out in the FWCC Histology Service, using automated processes and equipment to provide uniform and standardized results. Indirect labeling was with ABC Elite: RTU Vectastain Elite Reagent, Vector #PK-7100; DAB: ImmPact DAB, Vector #SK-4105. Light counterstaining was done with hematoxylin. […] Note the weak pNek1 stain in the tumor from mice treated with J54, in contrast to the increase seen with BIC.
LNCaP Xenograft Model and Immunohistochemistry (IHC): All animals used in this study were approved by LSUHSC IACUC and following ARRIVE guidelines. Male NOD/SCID mice (5 per group) were purchased from Jackson labs. LNCaP cells were injected as described earlier. Mice were treated IP bi-weekly with J54 (5 mg/kg body weight—dose estimation derived from pharmacokinetics study) and/or Bicalutamide (100 mg/kg).
The inventors sought to establish if the addition of J54 could suppress the resurgence of tumor growth of LNCaP xenografts and their latter conversion to CRPC. Following formation of sizeable tumors (˜200 mm^3), castration or anti-androgens arrest the progression of LNCaP xenografts for some time (2-3 weeks), while subsequently the tumors start growing again at an accelerated rate which is refractory to ADT (AI). Therefore, the inventors injected LNCaP cells in matrigel in both flanks of NOD-SCID mice, and then randomly assigned them to four treatment groups (n=5 per group×2 independent experiments), as shown in FIGS. 13A-13C. […] The inventors should also point out that the inventors treated the mice with J54 only bi-weekly due to the favorable pharmacokinetics, where maximal plasma concentration of 100 ng/ml ([…]) were reached 2 h after IP injection, and was still present at −6 ng/ml (6 μM) after 24 h (FIG. 18A-18C).

For test [1], the system named is recombinant human dopamine receptors (D1 and D3). Kind of test: Competitive radioassay with 7-Hydroxy DPAT, R-(+)-[3H] tracer. It is filed as binding. Conditions: 100 nM, compared to THD.
For the next test, the target named is T1, recombinant TLK1B (Homo sapiens, UniProt Q9UKI8).
T1 sequence (Q9UKI8 1-549 isoform Q9UKI8-3): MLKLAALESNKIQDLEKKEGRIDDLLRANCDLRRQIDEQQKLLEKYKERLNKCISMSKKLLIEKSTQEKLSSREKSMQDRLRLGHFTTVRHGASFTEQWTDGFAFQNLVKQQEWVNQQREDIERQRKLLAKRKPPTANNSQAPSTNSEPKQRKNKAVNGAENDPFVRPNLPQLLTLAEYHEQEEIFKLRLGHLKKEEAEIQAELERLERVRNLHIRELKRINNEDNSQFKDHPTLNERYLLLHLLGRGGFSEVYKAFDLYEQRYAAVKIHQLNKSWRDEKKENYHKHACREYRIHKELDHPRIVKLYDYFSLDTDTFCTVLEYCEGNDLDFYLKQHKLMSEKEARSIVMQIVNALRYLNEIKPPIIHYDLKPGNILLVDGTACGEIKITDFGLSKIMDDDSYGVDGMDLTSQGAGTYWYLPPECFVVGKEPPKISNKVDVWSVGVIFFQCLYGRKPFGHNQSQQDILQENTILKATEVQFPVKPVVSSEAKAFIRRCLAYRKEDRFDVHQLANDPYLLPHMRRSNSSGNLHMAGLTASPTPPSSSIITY
Kind of test: TLK1B kinase assay with Nek1 peptide (ADP Hunter), inhibitor screening. The class given is biochemical. Set-up: The full-length, 65 KDa recombinant human TLK1B (hTLK1B) for the in-vitro experiments was expressed and purified from bacteria; made in house; host or cells: bacteria. As to the method: FIG. 8A-FIG. 25 show further experiments into the present invention, with FIGS. 8A-8G show kinase assays, inhibitor screening, IC50 evaluation and competitive assays. Recombinant TLK1B purified to homogeneity (FIG. 8A) is active in kinase assays (FIG. 8B) and phosphorylates a specific Nek1 peptide (FIG. 8C). […] All experiments were conducted in triplicates. The DiscoverRx ADP Hunter™ (Eurofins DiscoverRx, Fremont, CA, US) Kit was used to measure the generation of ADP resulting from kinase phosphorylation of substrate.
Chemical synthesis of J54 and several different Phenothiazines and Protein expression and purification: Details were explained in section B of supplementary of material and methods. The full-length, 65 KDa recombinant human TLK1B (hTLK1B) for the in-vitro experiments was expressed and purified from bacteria as described earlier.
Results: A new PTH potent inhibitor of TLK1B. A few PTH antipsychotics were identified in a screen the inventors conducted from a compounds library as good inhibitors of TLK1. To find additional inhibitors, recombinant TLK1B was purified (FIG. 8A). The enzymatic activity was determined using the ADP-Hunter reagents and a Nek1 peptide containing the T141 target site. […] Several structurally similar compounds were synthesized as described in the Appendix (and see NMR and MS data FIGS. 10 and 11) and tested at 20 μM (FIGS. 8E and 8F). […] The inventors continued the inventors' characterization of J54.

Test [2] concerns p-Nek1-T141 in LNCaP, VCaP, TRAMP-C2. Kind of test: Western blots of checkpoint and apoptotic markers. The class given is cell-based. Conditions: with or without BIC, all 3 AS cell lines. As for the experimental part:
LNCaP, VCaP, and TRAMP-C2 cells from the four treatment groups as indicated were analyzed by WB for several indicators of DNA damage/apoptosis and mediators of cell cycle arrest. Representative analysis of two independent experiments for each cell line are shown
J54 with Bicalutamide suppresses the checkpoint markers and induces apoptotic markers. LNCaP, VCaP, and TRAMP-C2 are the main examples of established PCa cell lines that are initially AS, but when maintained in ADT condition, recapitulate the conversion to AI growth observed in patients, and start growing again. In the initial phase of ADT, they arrest cell division, primarily at the G1/S transition, and become quiescent, which is a protective effect from undergoing replication forks collapse upon inhibition of the licensing function of the AR. […] The inventors were also able to reproduce that the expression of TLK1B was induced in LNCaP and TRAMP-C2 following the addition of BIC. […] The VCaP cells were a little different because even without any BIC, p-ATR and p-Chk1 were already elevated. This has been observed before and attributed to a constitutive DDR activation due to the TMPRSS2-ERG fusion in these cells.
On the technique in general: A western blot detects proteins with antibodies after separation by electrophoresis.

Structures are written as SMILES.

This note sets out measurements from US11826369B2, “Targeting the TLK1/NEK1 axis in prostate cancer” (Board of Supervisors of Louisiana State University and …, priority 2019, dated 2023).

Turning to `c1ccc2c(c1)Sc1ccccc1N2CCN1CCOCC1` [J54, 4-(2-(10H-phenothiazin-10-yl)ethyl) morpholine], the tumor weight result with LNCaP xenografts (end of treatment) was “significant suppression”. Besides, the tumor growth entry in the test with LNCaP xenografts (J54 5 mg/kg, Bicalutamide 100 mg/kg) is given as “significant suppression”. The “antagonism of dopamine receptors” value in test [1] is “very weak antagonist”. The IC50 at recombinant TLK1B (new inhibitor screening assay) was 12.6 µM. For the same compound, at recombinant TLK1B (tested at 20 μM), the “inhibition of TLK1B compared with standard” value is given as “more inhibitory than Staurosporin”. Besides, the p-Nek1-T141 level entry in test [2] is listed as “reduction in the p-Nek1-T141”.

One may read the IC50 as the concentration that gives 50% inhibition.
